Tests used:
Assay type in all cases: cell-based, human
CYP24A1 = assay: Regulation of CYP24A1 mRNA expression in C4-2B castration-resistant cells (QRT-PCR)
Excerpt: FIG. 2. Regulation of CYP24A1 in C4-2B castration resistant cell lines.
CYP24A1 induction by calcitriol has been reported by many laboratories. However, complete suppression of this induction by androgen has not been reported in the literature.
(§1) Dampened vitamin D/VDR-induced CYP24A1 mRNA expression in the presence of androgen is beneficial, as it would prevent ligand degradation, thereby enhancing VDR signaling.

SULT2B1 = assay: QRT-PCR assay of SULT2B1 mRNAs in C4-2B cells; conditions: EB1089 10 nM, R1881 1 nM, FIG. 3B
Excerpt: as §1

HSD3β-1 = assay: Regulation of HSD3β-1 expression (quantitative RT-PCR, Western blot) in castration-resistant prostate cancer cell lines; conditions: C4-2B and C4-2 castration-resistant prostate cancer cell lines; FIG. 1
Excerpt: FIG. 1. Regulation of HSD3β-1 in C4-2B castration-resistant cell lines.

Compound	CYP24A1 mRNA expression (induction) (CYP24A1; C4-2B cells, EB1089 10 nM, R1881 1 nM, FIG. 3A) [fold]	induction of SULT2B1 mRNAs (SULT2B1)	expression of HSD3β-1 (messenger RNA and protein levels) (HSD3β-1)	induction of CYP24A1 (CYP24A1; C4-2B castration-resistant cells, calcitriol with or without androgen, FIG. 2)
C=C1/C(=C\C=C2/CCC[C@]3(C)[C@@H]([C@H](C)/C=C/C=C/C(O)(CC)CC)CC[C@@H]23)C[C@@H](O)C[C@@H]1O [EB1089]	~2000	induction		
C=C1/C(=C\C=C2/CCC[C@]3(C)[C@@H]([C@H](C)CCCC(C)(C)O)CC[C@@H]23)C[C@@H](O)C[C@@H]1O [calcitriol, 1,25-dihydroxycholecalciferol]			strongly induced	three orders of magnitude and more

Reference: US20190038641A1, “COMBINATION THERAPY FOR CASTRATION-RESISTANT PROSTRATE CANCER” (The Board of Regents of the University of Texas System, priority 2016, published 2019)
